“Also recorded” adds a separate entry of the source.
Legend:
[1] = system: cochlear Lgr5 progenitor cells; assay: Expansion and enrichment of Lgr5-GFP cochlear progenitor cells in 3D culture (Lgr5+ assay); type: cell-based, mouse
From the text: “Stem Cell Proliferation Assay” as used herein is an assay to determine the capacity for agent(s) to induce the creation of stem cells from a starting cell population. In an exemplary Stem Cell Proliferation Assay, the number of cells for an initial cell population is harvested from a Lgr5-GFP mouse such as a B6.129P2-Lgr5tm1(cre/ERT2)Cle/J mouse (also known as Lgr5-EGFP-IRES-creERT2 or Lgr5-GFP mouse, Jackson Lab Stock No: 008875) between the age of 0 to 5 days, by isolating the organ of Corti sensory epithelium and dissociating the epithelium into single cells. Approximately 5000 cells are entrapped in 40 μl of culture substrate (for example: Matrigel (Corning, Growth Factor Reduced)) and placed at the center of wells in a 24-well plate with 500 μl of an appropriate culture media, growth factors and agent being tested. Appropriate culture media and growth factors include Advanced DMEM/F12 with media Supplements (1×N2, 1× B27, 2 mM Glutamax, 10 mM HEPES, 1 mM N-acetylcysteine, and 100 U/ml Penicillin/100 μg/ml Streptomycin) and growth factors (50 ng/ml EGF, 50 ng/ml bFGF, and 50 ng/ml IGF-1) as well as the agent(s) being assessed are added into each well. Cells are cultured for 10 days in a standard cell culture incubator at 37° C. and 5% CO2, with media change every 2 days. The number of Lgr5+ cells is quantified by counting the number of cells identified as Lgr5+ in an In Vitro Lgr5 activity assay. The fraction of cells that are Lgr5+ is quantified by dividing the number of cells identified as Lgr5+ in a cell population by the total number of cells present in the cell population. The number of hair cells in a population may be measured by staining with hair cell marker (e.g., Myosin VIIa), or using an endogenous reporter of hair cell genes (e.g., Pou4f3-GFP, Atoh1-nGFP) and analyzing using flow cytometry. The fraction of cells that are hair cells is quantified by dividing the number of cells identified as hair cells in a cell population by the total number of cells present in the cell population. Gene and/or protein expression and/or activity is measured in this assay using methods known in the art such as by PCR, Nanostring, immunostaining, RNAseq, RNA hybridization, or Western blot analysis.
Neonatal Lgr5-EGFP-IRES-Cre-ER mice (The Jackson Laboratory, strain 8875) were used to analyze the effects of small molecules on cochlear stem cell expansion (see Barker et al., Nature 449, 1003-7 (2007). This strain allowed for visualization and quantification of EGFP cells.
All animal studies were conducted under an approved institutional protocol per National Institutes of Health guidelines. Using neonatal animals, cochleae were dissected and the organ of Corti (sensory epithelium) was separated from the stria vascularis (ion transport epithelium) and the modiolus (nerve tissue). Epithelia were then collected and treated with TrypLE for 15-20 minutes to obtain single cells. The cells were then filtered ([…]) and suspended in a Matrigel (Corning) dome for 3D culture seeded at 0.5 cochlea per well.
Expansion of Lgr5 Cells: Cells were cultured in a 3D system and bathed in a serum free 1:1 mixture of DMEM and F12, supplemented with Glutamax (GIBCO), N2, B27 (Invitrogen), EGF (50 ng/mL; Chemicon), bFGF (50 ng/mL; Chemicon), IGF-1 (50 ng/mL; Chemicon), and small molecules for seven days. Media was changed every other day. Treatments were run in triplicate or quadruplicate.
Lgr5 cells were quantified after 7-10 days. Cell colonies were dissociated into single cells using TrypLE. The cells were then stained with propidium iodide (PI) and analyzed using a flow cytometer to count Lgr5-EGFP cells. The percentage of viable Lgr5 cells was plotted against the concentration in GraphPad Prism.
Organ of Corti are dissected from Lgr5 GFP+ mice and dissociated as single cells as described above. Background media contains the same supplements and growth factors at the same concentrations as described above. […]

HDAC [2] = conditions: Table 6, cited from earlier work; for Class selectivity: HDAC class
Jag-1 [3] = assay: Jag-1 upregulation/expression in cultured Lgr5+ cells (qPCR); type: cell-based, mouse; conditions: for Jag-1 upregulation: EFI background (FIG. 3)
Jag-1 [4] = assay: Jag-1 expression in cultured Lgr5+ cells, Western blot band intensity normalized to GAPDH; type: cell-based, mouse
Protocol: Calculated Jag-1 normalized to GAPDH using GelQuant software and bands quantified. Net volumes of Jag-1 bands were divided by net volume values of matched GAPDH bands. These values were normalized to vehicle in a background of growth factors including: 50 ng/mL EGF (E), 50 ng/mL bFGF (F), and 50 ng/mL IGF1 (I).
Cultures contained a background of growth factors including: 50 ng/mL EGF (E), 50 ng/mL bFGF (F), and 50 ng/mL IGF1 (I).
Calculated Jag-1 normalized to GAPDH using GelQuant software and bands quantified. Net volumes of Jag-1 bands were divided by net volume values of matched GAPDH bands. These values were normalized to vehicle.

GSK-3 alpha [5] = target: GSK-3 alpha (Homo sapiens, UniProt P49840); conditions: Table 3; cited from earlier work
GSK-3 alpha [6] = target: GSK-3 alpha (Homo sapiens, UniProt P49841); conditions: GSK-3 alpha of Table 3; cited from earlier work
HDAC [7] = assay: HDAC inhibition in Lgr5 cell culture (FIG. 5); type: cell-based; conditions: with and without CHIR; EFI background (FIG. 5)
[8] = 1,4-DPCA 370 nM with CHIR 4 μM + VPA 1 mM, versus CHIR+VPA, EFI background
[9] = AS1842856 425 nM alone, EFI background
[10] = AS1842856 concentration series, EFI background (FIG. 7)
[11] = control compounds CHIR99021 4 μM and Valproic Acid 1 mM, EFI background
[12] = SF1670 0.1 μM added to CHIR, versus CHIR, EFI background
[13] = daprodustat 1.11 μM with CHIR 4 μM + VPA 1 mM, versus CHIR and CHIR+VPA, EFI background
[14] = VO-Ohpic 3 μM added to CHIR, versus CHIR, EFI background

Chain of GSK-3 alpha (Homo sapiens, UniProt P49840) (P49840 whole entry): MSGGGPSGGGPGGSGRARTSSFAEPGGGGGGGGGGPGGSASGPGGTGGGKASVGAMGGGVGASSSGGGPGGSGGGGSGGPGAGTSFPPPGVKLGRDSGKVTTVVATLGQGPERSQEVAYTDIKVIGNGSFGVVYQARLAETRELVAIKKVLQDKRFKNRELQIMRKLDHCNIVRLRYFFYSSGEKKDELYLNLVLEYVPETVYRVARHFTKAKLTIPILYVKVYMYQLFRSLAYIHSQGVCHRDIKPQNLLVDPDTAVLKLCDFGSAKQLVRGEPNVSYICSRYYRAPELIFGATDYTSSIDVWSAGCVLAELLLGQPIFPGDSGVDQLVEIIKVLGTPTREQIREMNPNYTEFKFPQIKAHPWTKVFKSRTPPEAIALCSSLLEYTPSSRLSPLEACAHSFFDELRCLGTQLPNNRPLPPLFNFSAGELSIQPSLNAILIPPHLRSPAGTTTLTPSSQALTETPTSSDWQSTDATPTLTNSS
Chain of GSK-3 alpha (Homo sapiens, UniProt P49841) (P49841 whole entry): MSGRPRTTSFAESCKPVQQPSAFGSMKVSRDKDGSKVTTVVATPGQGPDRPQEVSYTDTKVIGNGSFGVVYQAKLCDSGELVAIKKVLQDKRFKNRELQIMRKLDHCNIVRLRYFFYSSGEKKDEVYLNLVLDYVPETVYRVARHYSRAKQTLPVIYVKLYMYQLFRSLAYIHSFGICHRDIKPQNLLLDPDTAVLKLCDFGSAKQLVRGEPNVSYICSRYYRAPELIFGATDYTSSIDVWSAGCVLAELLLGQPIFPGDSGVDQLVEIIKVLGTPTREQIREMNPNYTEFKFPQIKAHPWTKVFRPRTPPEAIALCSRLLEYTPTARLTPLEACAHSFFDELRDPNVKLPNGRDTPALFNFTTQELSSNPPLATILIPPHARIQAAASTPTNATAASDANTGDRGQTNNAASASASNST

Compound: O=C(O)c1c[nH]c2c(ccc3cccnc32)c1=O [1,4-DPCA, 4,4α-dihydro-4-oxo-1,10-phenanthroline-3-carboxylic acid]
- Lgr5 GFP+ progenitor cell proliferation [1, 8]: enhances Lgr5 GFP+ progenitor cell proliferation
- enrichment of Lgr5 GFP+ progenitor cells [1, 8]: shows a trend for enrichment; also recorded: enhances Lgr5 GFP+ progenitor cell proliferation and enrichment
- enrichment of Lgr5 GFP+ cochlear progenitor cells ([1]; agent alone, EFI background): does not enrich; also recorded: does not proliferate or enrich
- proliferation of Lgr5 GFP+ cochlear progenitor cells ([1]; agent alone, EFI background): does not proliferate

Compound: C#CCC(CCCCCC)C(=O)O (centres unmarked) [2-hexyl-4-pentynoic acid]
- Class selectivity (HDAC [2]): Class I
- HDAC Potenc (HDAC [2]): 13 µM

Compound: CCn1cc(C(=O)O)c(=O)c2c(N)c(F)c(NC3CCCCC3)cc21 [AS1842856]
- expansion of cochlear Lgr5+ progenitor cells [1, 9]: elicits the expansion
- enrichment of Lgr5 cells (percentage) ([1]; AS1842856 425 nM combined with VPA 1 mM, EFI background): enriched
- LGR5+ cell growth (Lgr5 GFP(+) Cell Count) [1, 10]: concentration-dependent effects; also recorded: enhances expansion of cochlear progenitor cells concentration-dependent manner
- enrichment (Lgr5 GFP (%)) [1, 10]: concentration-dependent effects
- Lgr5-GFP colony formation ([1]; images, AS1842856 425 nM, EFI background): promotes Lgr5-GFP colony formation
- Jag-1 expression (Jag-1 [3]; qPCR, AS1842856 425 nM alone, EFI background): upregulates Jag-1 expression
- Jag-1 expression (Jag-1 [4]; [9]): upregulates Jag-1 expression

Compound: N#Cc1ccc2[nH]c(O)c(-c3ccc(CN4CCOCC4)cn3)c2c1 [AZD 1080]
- GSK-3 alpha (GSK-3 alpha [5]): 6.9 nM

Compound: Cc1c[nH]c(-c2cnc(NCCNc3ccc(C#N)cn3)nc2-c2ccc(Cl)cc2Cl)n1 [CHIR99021]
- enrichment (percent LGR5-GFP(+) cell) of cochlear Lgr5 progenitor cells ([1]; CHIR alone, EFI background): elicits
- expansion (LGR5-GFP(+) cell count) of cochlear Lgr5 progenitor cells ([1]; CHIR alone, background 50 ng/mL EGF, bFGF, IGF1 (EFI)): elicits the expansion
- enrichment of Lgr5 GFP+ cochlear progenitor cells [1, 11]: enrich
- Jag-1 upregulation (Jag-1 [3]; agent alone): upregulated Jag-1

Compound: O=C(O)CNC(=O)c1nc(Cl)c2ccccc2c1O [FG-2216, N-[(1-chloro-4-hydroxy-3-isoquinolinyl)carbonyl]-glycine]
- Lgr5 GFP+ progenitor cell proliferation ([1]; FG-2216 30 μM with CHIR 4 μM + VPA 1 mM, versus CHIR and CHIR+VPA, EFI background): proliferates Lgr5 GFP+ progenitor cell similarly
- enrichment of Lgr5 GFP+ progenitor cells ([1]; FG-2216 30 μM with CHIR 4 μM + VPA 1 mM, versus CHIR+VPA, EFI background): shows a trend for enhanced enrichment
- Lgr5 GFP+ progenitor cell proliferation ([1]; FG-2216 30 μM with CHIR 4 μM, versus CHIR and CHIR+VPA 1 mM, EFI background): enhances Lgr5 GFP+ progenitor cell proliferation
- enrichment of Lgr5 GFP+ progenitor cells ([1]; FG-2216 30 μM with CHIR 4 μM, versus CHIR+VPA 1 mM, EFI background): enhances enrichment; also recorded: enriches Lgr5 GFP+ progenitor cell enrichment
- enrichment of Lgr5 GFP+ cochlear progenitor cells ([1]; agent alone, EFI background): does not enrich; also recorded: does not proliferate or enrich
- proliferation of Lgr5 GFP+ cochlear progenitor cells ([1]; agent alone, EFI background): does not proliferate

Compound: Cc1ccc(C(=O)Nc2c[nH]nc2C(=O)NCCCOC(C)C)cn1 [GSK XXII]
- Lgr5+ Assay ([1]; concentration range in Lgr5+ assay, Table 3): 0.2 to 1 µM
- GSK-3 alpha (GSK-3 alpha [5]): 2.3 nM

Compound: O=C1NC(=O)C(c2cnc3ccccn23)=C1c1cn2c3c(cc(F)cc13)CN(C(=O)N1CCCCC1)CC2 [LY2090314, 3-(9-fluoro-2-(piperidine-1-carbonyl)-1,2,3,4-tetrahydro-[1,4]diazepino[6,7,1-hi]indol-7-yl)-4-(imidazo[1,2-a]pyridin-3-yl)-1H-pyrrole-2,5-dione]
- GSK-3 alpha (GSK-3 alpha [5]): 2.1 nM
- GSK-3 alpha (GSK-3 alpha [6]): 0.9 nM

Compound: CC(C)(C)C(=O)Nc1ccc2c(c1)C(=O)C(=O)c1ccccc1-2 [SF1670]
- enrichment (percent LGR5-GFP(+) cell) of cochlear Lgr5 progenitor cells [1, 12]: further enhanced
- expansion (LGR5-GFP(+) cell count) of cochlear Lgr5 progenitor cells [1, 12]: further enhanced

Compound: CCCC(CCC)C(=O)[O-].[Na+] [Sodium Valproate]
- enrichment of Lgr5 GFP+ cochlear progenitor cells [1, 11]: enrich
- Jag-1 upregulation (Jag-1 [4]; AS1842856 425 nM plus VPA 1 mM, versus AS1842856 alone): enhanced the effects of 425 nM AS1842856 on Jag-1 upregulation
- HDAC inhibition (HDAC [7]): concentration dependent increase in HDAC inhibition
- Class selectivity (HDAC [2]): Class I
- HDAC Potenc (HDAC [2]): 39 to 161 µM

Compound: O=C(O)CNC(=O)C1C(=O)N(C2CCCCC2)C(=O)N(C2CCCCC2)C1=O [daprodustat, N-[(1,3-dicyclohexylhexahydro-2,4,6-trioxo-5-pyrimidinyl)carbonyl]-glycine]
- enrichment of Lgr5 GFP+ cochlear progenitor cells ([1]; agent alone, EFI background): does not enrich; also recorded: does not proliferate or enrich
- proliferation of Lgr5 GFP+ cochlear progenitor cells ([1]; agent alone, EFI background): does not proliferate
- Lgr5 GFP+ progenitor cell proliferation [1, 13]: does not enhance Lgr5 GFP+ progenitor cell proliferation
- enrichment of Lgr5 GFP+ progenitor cells [1, 13]: enhances enrichment

Compound: Jag-1 peptide: soluble Jag-1 peptide (residues 188-204), CDDYYYGFGCNKFCRPR (SEQ ID NO:1) (listed as Homo sapiens)
- Lgr5+ cell proliferation ([1]; 0.25 μM Jag-1 peptide added to 4 μM CHIR, EFI background): able to recapitulate enhancement of Lgr5+ cell proliferation; also recorded: enhances CHIR induced Lgr5+ cell proliferation

Compound: Na phenylbutyrate
- Class selectivity (HDAC [2]): Class I >
- HDAC Potenc (HDAC [2]): 9 to 16 µM

Compound: VO-Ohpic
- enrichment (percent LGR5-GFP(+) cell) of cochlear Lgr5 progenitor cells [1, 14]: enhanced
- expansion (LGR5-GFP(+) cell count) of cochlear Lgr5 progenitor cells [1, 14]: enhanced
- Jag-1 upregulation (Jag-1 [3]; VO-Ohpic 3 μM added to CHIR, versus CHIR): enhanced; also recorded: synergistically enhances Jag-1 upregulation
- Jag-1 upregulation (Jag-1 [3]; agent alone, listed as VO): does not upregulate Jag-1
- HDAC inhibition (HDAC [7]): does not elicit a detectable increase in HDAC inhibition

From US11162071B2, “Compositions and methods for generating hair cells by upregulating JAG-1” (Frequency Therapeutics, Inc., priority 2018, dated 2021)
